Data reported in patent publication US20230278981A1, “DICHLOROPHENOL HSD17B13 INHIBITORS AND USES THEREOF” (INIPHARM, INC., priority 2020, published 2023).

These compounds were tested against HSD17B13 (Homo sapiens (Human), UniProt Q7Z5P4) (assay: LC/MS estrone detection assay: conversion of estradiol to estrone by HSD17B13). Details: 4 μM estradiol, 6 mM NAD+, 30 nM HSD17B13 enzyme (E. coli expressed His-tagged), 2 hours at 26.5° C.
Format: biochemical
Method in brief: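 His-tagged E. coli-expressed HSD17B13 (30 nM) with 4 μM estradiol and 6 mM NAD+ in 1 M potassium phosphate pH 7.4, 0.5% DMSO, 2 h at 26.5° C. Estrone and estradiol quantified by LC-MS/MS after MeCN quench with D4-estrone internal standard; activity as % of uninhibited enzyme, IC50 by four-parameter fit, duplicates.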

Sequence of HSD17B13 (Q7Z5P4 20-300): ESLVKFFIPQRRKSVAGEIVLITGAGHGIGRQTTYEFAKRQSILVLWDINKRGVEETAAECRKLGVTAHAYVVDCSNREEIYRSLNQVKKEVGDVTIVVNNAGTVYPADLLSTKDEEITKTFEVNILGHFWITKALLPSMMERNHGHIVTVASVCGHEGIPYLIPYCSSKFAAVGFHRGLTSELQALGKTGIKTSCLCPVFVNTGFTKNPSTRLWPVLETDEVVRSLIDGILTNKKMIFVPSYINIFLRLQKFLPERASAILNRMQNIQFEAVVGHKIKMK

| SMILES | IC50 |
| --- | --- |
| Cc1ccc(NC(=O)c2cc(Cl)c(O)c(Cl)n2)c2c(=O)n(Cc3ncccc3Cl)c(C)nc12 [Example 178, 4,6-dichloro-N-(3-((3-chloropyridin-2-yl)methyl)-2,8-dimethyl-4-oxo-3,4-dihydroquinazolin-5-yl)-5-hydroxypicolinamide] | 500 to 1000 nM |
| O=C(Nc1cccc2ncn(Cc3cccc(C(F)(F)F)c3)c(=O)c12)c1cc(Cl)c(O)c(Cl)n1 [Example 40, 4,6-dichloro-5-hydroxy-N-(4-oxo-3-(3-(trifluoromethyl)benzyl)-3,4-dihydroquinazolin-5-yl)picolinamide] | 100 to 500 nM |
| CC(C)(C)CCn1cnc2cccc(NC(=O)c3cc(Cl)c(O)c(Cl)n3)c2c1=O [Example 61, 4,6-dichloro-N-(3-(3,3-dimethylbutyl)-4-oxo-3,4-dihydroquinazolin-5-yl)-5-hydroxypicolinamide] | 100 to 500 nM |
| O=C(Nc1cccc2ncn([C@@H]3CC[C@H]3c3ccccc3)c(=O)c12)c1cc(Cl)c(O)c(Cl)n1 (racemic) [Example 175, rac-4,6-dichloro-5-hydroxy-N-(4-oxo-3-((1R,2S)-2-phenylcyclobutyl)-3,4-dihydroquinazolin-5-yl)picolinamide] | 100 to 500 nM |
| O=C(Nc1cccc2ncn(Cc3ccc(F)cc3)c(=O)c12)c1cc(Cl)c(O)c(Cl)n1 [Example 42, 4,6-dichloro-N-{3-[(4-fluorophenyl)methyl]-4-oxo-3,4-dihydroquinazolin-5-yl}-5-hydroxypyridine-2-carboxamide] | 100 to 500 nM |
| COc1ccccc1CCn1cnc2cccc(NC(=O)c3cc(Cl)c(O)c(Cl)c3)c2c1=O [Example 36, 3,5-dichloro-4-hydroxy-N-(3-(2-methoxyphenethyl)-4-oxo-3,4-dihydroquinazolin-5-yl)benzamide] | 100 to 500 nM |
| O=C(Nc1cccc2ncn(CC3CC3)c(=O)c12)c1cc(Cl)c(O)c(Cl)c1 [Example 3, 3,5-dichloro-N-(3-(cyclopropylmethyl)-4-oxo-3,4-dihydroquinazolin-5-yl)-4-hydroxybenzamide] | 100 to 500 nM |

Other lines, results leading:

| IC50 | SMILES |
| --- | --- |
| ≤ 100 nM | O=C(Nc1cccc2ncn(Cc3ccccc3OC(F)(F)F)c(=O)c12)c1cc(Cl)c(O)c(Cl)c1 [Example 2, 3,5-dichloro-4-hydroxy-N-(4-oxo-3-(2-(trifluoromethoxy)benzyl)-3,4-dihydroquinazolin-5-yl)benzamide] |
| ≤ 100 nM | O=C(Nc1cccc2ncn(Cc3cccnc3C(F)(F)F)c(=O)c12)c1cc(Cl)c(O)c(Cl)c1 [Example 82, 3,5-dichloro-4-hydroxy-N-(4-oxo-3-((2-(trifluoromethyl)pyridin-3-yl)methyl)-3,4-dihydroquinazolin-5-yl)benzamide] |
| ≤ 100 nM | Cc1ccc(NC(=O)c2cc(Cl)c(O)c(Cl)c2)c2c(=O)n(Cc3ccccc3C(F)(F)F)c(CF)nc12 [Example 186, 3,5-dichloro-N-(2-(fluoromethyl)-8-methyl-4-oxo-3-(2-(trifluoromethyl)benzyl)-3,4-dihydroquinazolin-5-yl)-4-hydroxybenzamide] |
| ≤ 100 nM | O=C(Nc1ccc(Cl)c2ncn(Cc3ccccc3OC(F)(F)F)c(=O)c12)c1cc(Cl)c(O)c(Cl)c1 [Example 81, 3,5-dichloro-N-(8-chloro-4-oxo-3-(2-(trifluoromethoxy)benzyl)-3,4-dihydroquinazolin-5-yl)-4-hydroxybenzamide] |
| ≤ 100 nM | Cc1ccc(NC(=O)c2cc(Cl)c(O)c(Cl)c2)c2c(=O)n([C@@H]3CC[C@H]3c3ccccc3)c(C)nc12 [Example 203, 3,5-dichloro-N-(2,8-dimethyl-4-oxo-3-((1R,2S)-2-phenylcyclobutyl)-3,4-dihydroquinazolin-5-yl)-4-hydroxybenzamide] |
